Results published in patent US20050197350A1, “Novel quinoline, tetrahydroquinazoline, and pyrimidine derivatives and methods of treatment related to the use thereof” (TAISHO PHARMACEUTICAL CO., LTD., priority 2003, published 2005).

test system: MCH receptors; assay: MCH receptor activity class (method not given); settings: not given

| Structure (SMILES) | class |
| --- | --- |
| Cc1cc(N(C)C)nc(N[C@H]2CC[C@@H](C(=O)NCc3cc(Cl)cc(Cl)c3)CC2)n1 [Example 2575, cis-N-(3,5-dichlorobenzyl)-4-{[4-(dimethylamino)-6-methylpyrimidin-2-yl]amino}cyclohexanecarboxamide] | 1 |
| COc1cc(CNC(=O)[C@H]2CC[C@@H](Nc3nc(C)cc(N(C)C)n3)CC2)cc(OC)c1 [Example 2576, cis-N-(3,5-dimethoxybenzyl)-4-{[4-(dimethylamino)-6-methylpyrimidin-2-yl]amino}cyclohexanecarboxamide] | 1 |
| Cc1cc(N(C)C)nc(N[C@H]2CC[C@@H](C(=O)NCc3cccc(Cl)c3)CC2)n1 [Example 2577, cis-N-(3-chlorobenzyl)-4-{[4-(dimethylamino)-6-methylpyrimidin-2-yl]amino}cyclohexanecarboxamide] | 1 |
| Cc1cc(N(C)C)nc(N[C@H]2CC[C@@H](C(=O)NCc3cc(C(F)(F)F)cc(C(F)(F)F)c3)CC2)n1 [Example 2578, cis-N-[3,5-bis(trifluoromethyl)benzyl]-4-{[4-(dimethylamino)-6-methylpyrimidin-2-yl]amino}cyclohexanecarboxamide] | 1 |
| COc1cccc(CNC(=O)[C@H]2CC[C@@H](Nc3nc(C)cc(N(C)C)n3)CC2)c1 [Example 2579, cis-4-{[4-(dimethylamino)-6-methylpyrimidin-2-yl]amino}-N-(3-methoxybenzyl)cyclohexanecarboxamide] | 1 |
| Cc1cc(N(C)C)nc(N[C@H]2CC[C@@H](C(=O)NCc3ccc(Cl)cc3)CC2)n1 [Example 2580, cis-N-(4-chlorobenzyl)-4-{[4-(dimethylamino)-6-methylpyrimidin-2-yl]amino}cyclohexanecarboxamide] | 1 |
| Cc1cc(N(C)C)nc(N[C@H]2CC[C@@H](C(=O)NCc3ccc(Cl)c(Cl)c3)CC2)n1 [Example 2581, cis-N-(3,4-dichlorobenzyl)-4-{[4-(dimethylamino)-6-methylpyrimidin-2-yl]amino}cyclohexanecarboxamide] | 1 |
| Cc1cc(N(C)C)nc(N[C@H]2CC[C@@H](C(=O)NCc3ccc(F)cc3F)CC2)n1 [Example 2582, cis-N-(2,4-difluorobenzyl)-4-{[4-(dimethylamino)-6-methylpyrimidin-2-yl]amino}cyclohexanecarboxamide] | 1 |
| Cc1cc(N(C)C)nc(N[C@H]2CC[C@@H](C(=O)NCc3cc(F)ccc3F)CC2)n1 [Example 2583, cis-N-(2,5-difluorobenzyl)-4-{[4-(dimethylamino)-6-methylpyrimidin-2-yl]amino}cyclohexanecarboxamide] | 1 |
| Cc1cc(N(C)C)nc(N[C@H]2CC[C@@H](C(=O)NCc3cccc(F)c3F)CC2)n1 [Example 2584, cis-N-(2,3-difluorobenzyl)-4-{[4-(dimethylamino)-6-methylpyrimidin-2-yl]amino}cyclohexanecarboxamide] | 1 |
| Cc1cc(N(C)C)nc(N[C@H]2CC[C@@H](C(=O)NCc3ccc(Br)cc3F)CC2)n1 [Example 2585, cis-N-(4-bromo-2-fluorobenzyl)-4-{[4-(dimethylamino)-6-methylpyrimidin-2-yl]amino}cyclohexanecarboxamide] | 1 |
| Cc1cccc(CNC(=O)[C@H]2CC[C@@H](Nc3nc(C)cc(N(C)C)n3)CC2)c1 [Example 2586, cis-4-{[4-(dimethylamino)-6-methylpyrimidin-2-yl]amino}-N-(3-methylbenzyl)cyclohexanecarboxamide] | 1 |
| Cc1cc(N(C)C)nc(N[C@H]2CC[C@@H](C(=O)NCc3ccccc3OC(F)(F)F)CC2)n1 [Example 2587, cis-4-{[4-(dimethylamino)-6-methylpyrimidin-2-yl]amino}-N-[2-(trifluoromethoxy)benzyl]cyclohexanecarboxamide] | 1 |

same assay, conditions: MCH receptor; class by percent of control at 10^-7 M or IC50

| Structure (SMILES) | class |
| --- | --- |
| COc1cccc(C(=O)N[C@H]2CC[C@@H](Nc3cc(N(C)C)c4ccccc4n3)CC2)c1 [compound 20, N-(cis-4-{[4-(dimethylamino)quinolin-2-yl]amino}cyclohexyl)-3-methoxybenzamide] | 2 (Class 2: The value of percent of control at 10^−7 M was from 40% to 60% or the value of IC′50 was from 50 nM to 200 nM.) |
| CN(C)c1cc(N[C@H]2CC[C@@H](NC(=O)c3cccc(Br)c3)CC2)nc2ccccc12 [compound 21] | 1 (Class 1: The value of percent of control at 10^−7 M was less than 40% or the value of IC50 was less than 50 nM.) |
| CN(C)c1cc(N[C@H]2CC[C@@H](NC(=O)c3ccc(Br)cc3)CC2)nc2ccccc12 [compound 22] | 2 (Class 2: The value of percent of control at 10^−7 M was from 40% to 60% or the value of IC′50 was from 50 nM to 200 nM.) |
| CN(C)c1cc(N[C@H]2CC[C@@H](NC(=O)c3ccc4nonc4c3)CC2)nc2ccccc12 [compound 23, N-(cis-4-{[4-(dimethylamino)quinolin-2-yl]amino}cyclohexyl)-2,1,3-benzoxadiazole-5-carboxamide] | 1 (Class 1: The value of percent of control at 10^−7 M was less than 40% or the value of IC50 was less than 50 nM.) |
| CN(C)c1cc(N[C@H]2CC[C@@H](NC(=O)c3cccc(Cl)c3)CC2)nc2ccccc12 [compound 24] | 1 (Class 1: The value of percent of control at 10^−7 M was less than 40% or the value of IC50 was less than 50 nM.) |
| CN(C)c1cc(N[C@H]2CC[C@@H](NC(=O)c3ccc(Cl)cc3)CC2)nc2ccccc12 [compound 25] | 1 (Class 1: The value of percent of control at 10^−7 M was less than 40% or the value of IC50 was less than 50 nM.) |
| CN(C)c1cc(N[C@H]2CC[C@@H](NC(=O)/C=C/c3ccccc3)CC2)nc2ccccc12 [compound 26] | 3 (Class 3 The value of percent of control at 10^−7 M was more than 60% or the value of IC50 was more than 200 nM.) |
| CN(C)c1cc(N[C@H]2CC[C@@H](NC(=O)c3ccc(Cl)c([N+](=O)[O-])c3)CC2)nc2ccccc12 [compound 27, 4-chloro-N-(cis-4-{[4-(dimethylamino)quinolin-2-yl]amino}cyclohexyl)-3-nitrobenzamide] | 1 (Class 1: The value of percent of control at 10^−7 M was less than 40% or the value of IC50 was less than 50 nM.) |
| CN(C)c1cc(N[C@H]2CC[C@@H](NC(=O)Cc3ccc(Cl)cc3)CC2)nc2ccccc12 [compound 28] | 3 (Class 3 The value of percent of control at 10^−7 M was more than 60% or the value of IC50 was more than 200 nM.) |
| CN(C)c1cc(N[C@H]2CC[C@@H](NC(=O)c3cccc(C#N)c3)CC2)nc2ccccc12 [compound 29] | 2 (Class 2: The value of percent of control at 10^−7 M was from 40% to 60% or the value of IC′50 was from 50 nM to 200 nM.) |
| CN(C)c1cc(N[C@H]2CC[C@@H](NC(=O)c3cc(Cl)cc(Cl)c3)CC2)nc2ccccc12 [compound 30] | 2 (Class 2: The value of percent of control at 10^−7 M was from 40% to 60% or the value of IC′50 was from 50 nM to 200 nM.) |
| CN(C)c1cc(N[C@H]2CC[C@@H](NC(=O)c3ccc(Cl)c(Cl)c3)CC2)nc2ccccc12 [compound 31] | 1 (Class 1: The value of percent of control at 10^−7 M was less than 40% or the value of IC50 was less than 50 nM.) |
| CN(C)c1cc(N[C@H]2CC[C@@H](NC(=O)C(c3ccccc3)c3ccccc3)CC2)nc2ccccc12 [compound 32, N-(cis-4-{[4-(dimethylamino)quinolin-2-yl]amino}cyclohexyl)-2,2-diphenylacetamide] | 2 (Class 2: The value of percent of control at 10^−7 M was from 40% to 60% or the value of IC′50 was from 50 nM to 200 nM.) |
